Our source for the TGI values is PubChem BioAssay (NCI).

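These data come from cells grown in 96-well plates and exposed to compound for 48 hours at five concentrations. TGI marks complete inhibition of growth.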 A value given as a limit tells only on which side of the number the result lay.

Among the test systems are ACHN renal; OVCAR-8 ovarian; DU-145 prostate; SNB-75 CNS; HS 578T breast; SK-OV-3 ovarian; M14 melanoma; KM12 colon; K-562 leukemia.
Experiment in all cases: growth of human tumour cells (NCI), 48 h

As to `CCOC(=O)CCC(NC(=O)c1ccc(N2CCN(c3c(C)nc(N)nc3N)CC2)cc1)C(=O)OCC` (stereo not given), the TGI in the test with ACHN renal, in the test with OVCAR-8 ovarian, with DU-145 prostate, in the test with SNB-75 CNS, with HS 578T breast and in the test on SK-OV-3 ovarian was greater than 100 µM throughout. Besides, the TGI was greater than 46 µM with M14 melanoma, greater than 100 µM in the test on KM12 colon and 0.844 µM in the test on K-562 leukemia.
With `Cn1c(-c2cccs2)cc(-c2cccs2)c1-c1ccsc1`, the TGI with ACHN renal, with OVCAR-8 ovarian, in the test with DU-145 prostate, with SNB-75 CNS, with HS 578T breast and in the test with SK-OV-3 ovarian was greater than 100 µM in each case. In addition, the TGI in the test with M14 melanoma, in the test with KM12 colon and in the test on K-562 leukemia was greater than 100 µM in each case.
Consider `Cc1nnc2n1-c1ccccc1C(=S)N1CSCC21` (stereo not given), for which the TGI with ACHN renal, with OVCAR-8 ovarian, in the test with DU-145 prostate, in the test on SNB-75 CNS, in the test with HS 578T breast and with SK-OV-3 ovarian was greater than 100 µM throughout. Also, the TGI with M14 melanoma, in the test on KM12 colon and in the test with K-562 leukemia was greater than 100 µM throughout.
As for `O=[N+]([O-])c1ccc2nc(/C=C(\O)c3ccc(F)cc3)c(/C=C(\O)c3ccc(F)cc3)nc2c1`, the TGI was 36.6 µM in the test on ACHN renal; greater than 100 µM in the test with OVCAR-8 ovarian; greater than 100 µM in the test on DU-145 prostate; 37.5 µM in the test with SNB-75 CNS; greater than 100 µM in the test with HS 578T breast; 47.5 µM in the test with SK-OV-3 ovarian. Further, the TGI in the test on M14 melanoma, with KM12 colon and in the test with K-562 leukemia was greater than 100 µM throughout.
Consider `COC(=O)c1csc(-c2nc(CCNC(=O)OC(C)(C)C)sc2Br)n1`, for which the TGI in the test on ACHN renal, with OVCAR-8 ovarian, in the test on DU-145 prostate, in the test with SNB-75 CNS, in the test with HS 578T breast and with SK-OV-3 ovarian was greater than 100 µM in each case. In addition, the TGI in the test with M14 melanoma, in the test with KM12 colon and in the test with K-562 leukemia was greater than 100 µM each time.
Take `CN(CCc1ccc(N)cc1)[C@H]1CCCC[C@H]1N1CCCC1`: the TGI in the test with ACHN renal, with OVCAR-8 ovarian, in the test on DU-145 prostate, in the test with SNB-75 CNS, in the test on HS 578T breast and with SK-OV-3 ovarian was greater than 100 µM in each case. Further, the TGI in the test on M14 melanoma, in the test with KM12 colon and with K-562 leukemia was greater than 100 µM each time.
For `Cc1cn(Cc2ccccc2CCl)c(=O)[nH]c1=O`, the TGI in the test on ACHN renal is 27.1 µM; in the test on OVCAR-8 ovarian, 29.2 µM; in the test on DU-145 prostate it was 31.3 µM; with SNB-75 CNS it was 30 µM; with HS 578T breast, 56.6 µM; with SK-OV-3 ovarian, greater than 100 µM. The TGI with M14 melanoma was 28.2 µM; with KM12 colon it was 37.4 µM; with K-562 leukemia, 56 µM.
In the case of `O=S1C2=C(Cc3ccccc3)C(Cc3ccccc3)=C1CCc1cccc(c1)CC2`, the TGI in the test on ACHN renal was determined as 30.8 µM; in the test on OVCAR-8 ovarian, 34 µM; in the test with DU-145 prostate, 30.3 µM; in the test with SNB-75 CNS, 27.8 µM; with HS 578T breast, 48.8 µM; with SK-OV-3 ovarian, 24.3 µM. Moreover, the TGI was 29 µM in the test with M14 melanoma, 26.7 µM in the test on KM12 colon and greater than 100 µM with K-562 leukemia.
With `O=C(CC(C(=O)c1ccoc1)c1ccco1)c1ccco1` (stereo not given), the TGI with ACHN renal, in the test with OVCAR-8 ovarian, in the test on DU-145 prostate, with SNB-75 CNS, in the test on HS 578T breast and with SK-OV-3 ovarian was greater than 100 µM in each case. For the same compound, the TGI with M14 melanoma, in the test with KM12 colon and in the test on K-562 leukemia was greater than 100 µM in each case.
For the compound `COc1cccc(NC(=O)CC(=O)N2N=C(C)C(N=Nc3ccc(S(=O)(=O)c4ccc(N=NC5C(=O)N(C(=O)CC(=O)Nc6cccc(OC)c6)N=C5C)cc4)cc3)C2=O)c1` (stereo not given), the TGI with ACHN renal, in the test on OVCAR-8 ovarian, with DU-145 prostate, with SNB-75 CNS, in the test with HS 578T breast and with SK-OV-3 ovarian was greater than 100 µM each time. Moreover, the TGI with M14 melanoma, with KM12 colon and in the test on K-562 leukemia was greater than 100 µM each time.
For the compound `O[C@@H]1C[C@@H]2N[C@@](O)(C[C@@H]2O)[C@H]1O`, the TGI with ACHN renal, with OVCAR-8 ovarian, with DU-145 prostate, in the test on SNB-75 CNS, in the test on HS 578T breast and with SK-OV-3 ovarian was greater than 100 µM in each case. Further, the TGI with M14 melanoma, with KM12 colon and with K-562 leukemia was greater than 100 µM throughout.
In the case of `COc1ccc(CCNC(=O)Cc2cc(OC)c(OC)cc2CO)cc1OC`, the TGI with ACHN renal, in the test with OVCAR-8 ovarian, in the test on DU-145 prostate, in the test on SNB-75 CNS, in the test on HS 578T breast and with SK-OV-3 ovarian was greater than 100 µM in each case. The TGI in the test on M14 melanoma, with KM12 colon and in the test with K-562 leukemia was greater than 100 µM in each case.
As for `COc1ccc(N=C(Nc2ccc(OC)cc2)C(=Nc2ccc(OC)cc2)Nc2ccc(OC)cc2)cc1`, the TGI in the test with ACHN renal was greater than 100 µM; in the test with OVCAR-8 ovarian it was greater than 100 µM; with DU-145 prostate it was greater than 100 µM; with SNB-75 CNS it was 8.01 µM; in the test on HS 578T breast, greater than 100 µM; in the test with SK-OV-3 ovarian it was greater than 100 µM. Further, the TGI with M14 melanoma, with KM12 colon and in the test with K-562 leukemia was greater than 100 µM throughout.
Consider `OC1COC(n2c3ccc(Br)cc3c3ccc4c5ccccc5[nH]c4c32)C(O)C1O` (stereo not given), for which the TGI was 10.9 µM in the test on ACHN renal; 15.8 µM in the test with OVCAR-8 ovarian; 12.6 µM with DU-145 prostate; 14.3 µM in the test with SNB-75 CNS; 18.1 µM with HS 578T breast; 17.7 µM with SK-OV-3 ovarian. Besides, the TGI was 15.3 µM with M14 melanoma, 3.53 µM in the test with KM12 colon and 13.6 µM with K-562 leukemia.
Consider `CC(C)=CCC/C(C)=C/CC/C(C)=C/CC/C(C)=C/CC/C(C)=C\CC/C(C)=C/CC/C(C)=C/CC/C(C)=C/Cc1cc(O)ccc1O`, for which the TGI with ACHN renal was greater than 39.8 µM; in the test with OVCAR-8 ovarian, 3.42 µM; with DU-145 prostate it was greater than 72.9 µM; in the test with SNB-75 CNS, 11.6 µM; in the test on HS 578T breast it was 8.93 µM; in the test with SK-OV-3 ovarian it was 15.6 µM. Besides, the figures for the TGI in the test on M14 melanoma, in the test with KM12 colon and in the test with K-562 leukemia were 1.25 µM, 2.53 µM and 26.4 µM, respectively.
